Assay results published in PMC8217170, “Phase Ib dose-escalation study of the hypoxia-modifier Myo-inositol trispyrophosphate in patients with hepatopancreatobiliary tumors” (Nature Communications, 2021).
Values joined by “and” are separate entries in the source; they are usually repeats but may differ in a detail not shown here. Equal entries are not always repeated.

Legend:
PECAM1/CD31 = experiment: Serum angiogenesis marker, multiplex bead-based immunoassay (LEGENDplex); format: in vivo, human; conditions: for PECAM_1: serum, duplicate wells
Experimental: Serum angiogenesis markers were quantified by multiplex bead-based immunoassays following provided instructions (LEGENDplex™, Biolegend, San Diego, CA/USA). For biochemical markers, the percentage change comparing before (day 1 0 h) with after (last day 9 h) ITPP treatment was calculated.

[1] = test system: target lesions of PDAC, CRLM, CCA and HCC; experiment: Metabolic radiological response, FDG-PET-CT, EORTC criteria; format: in vivo, human; parameters: key to EORTC response after chemotherapy / EORTC response after ITPP / RespITPP_EORTC / RespChemo_EORTC: CMR = complete metabolic response; PMR = partial metabolic response; SMD = stable metabolic disease; PMD = progressive metabolic disease; Median change in metabolic activity, EORTC: concentration or dose not given beside the values; Lesion1_pre_TLG / Lesion1_post_TLG / Lesion1_chemo_TLG / Lesion2_pre_TLG / Lesion2_post_TLG / Lesion2_chemo_TLG / Lesion3_pre_TLG / Lesion3_post_TLG / Lesion3_chemo_TLG / Lesion4_pre_TLG / Lesion4_post_TLG / Lesion4_chemo_TLG / Lesion5_pre_TLG / Lesion5_post_TLG / Lesion5_chemo_TLG: unit not given here; conditions: for EORTC response after chemotherapy: chemotherapy subsequent to ITPP; for RespITPP_EORTC / RespChemo_EORTC: EORTC
Experimental: Radiological assessment, consisting of abdominal MRI and FDG-PET-CT, was performed before ITPP administration and after the 3-week treatment course. Where possible, radiological re-evaluation was performed after 3–6 cycles of chemotherapy. Radiological responses were evaluated according to the RECIST 1.1 criteria[56] for MRI and EORTC criteria[57] for FDG-PET-CT imaging.
Then first calculate the sum of diameters (DM) and SUV-activities of radiological target lesions before ITPP (sum_pre), after ITPP (sum_post) and after subsequent chemotherapy (sum_chemo) for assessment of morphological RECIST1.1 (diameter) and metabolical EORTC (SUV activiy) responses.
Patient 1 (dropout after only 2 infusions and subsequent death due to rapid oncological progression) is excluded for radiological assessment due to no follow up imaging available.
In a second step, we calculate percent changes (PC) of diameter and SUV activity between before ITPP, after ITPP and after chemotherapy.

[2] = in vivo
[3] = after chemotherapy subsequent to ITPP, 15 patients
[4] = individual patients, lesion 1, after subsequent chemotherapy
[5] = individual patients, lesion 1, post ITPP
[6] = individual patients, lesion 1, pre ITPP (baseline)
[7] = individual patients, lesion 2, after subsequent chemotherapy
[8] = individual patients, lesion 2, post ITPP
[9] = individual patients, lesion 2, pre ITPP (baseline)
[10] = individual patients, lesion 3, after subsequent chemotherapy
[11] = individual patients, lesion 3, post ITPP
[12] = individual patients, lesion 3, pre ITPP (baseline)
[13] = individual patients, lesion 4, after subsequent chemotherapy
[14] = individual patients, lesion 4, post ITPP
[15] = individual patients, lesion 4, pre ITPP (baseline)
[16] = individual patients, lesion 5, after subsequent chemotherapy
[17] = individual patients, lesion 5, post ITPP
[18] = individual patients, lesion 5, pre ITPP (baseline)

Structure (SMILES): O=P1(O)OC2C3OP(=O)(O)OP(=O)(O)OC3C3OP(=O)(O)OP(=O)(O)OC3C2OP(=O)(O)O1 (stereo not shown) [ITPP, Myo-inositol trispyrophosphate]
- Share of patients with reduced PECAM1 (PECAM1/CD31; following ITPP treatment, 27 patients): 66.7%
- PECAM_1 (PECAM1/CD31; Patient 25, Cohort 8, PDAC, Day 3 post): 261.09
- PECAM_1 (PECAM1/CD31; Patient 25, Cohort 8, PDAC, Day 9 post): 287.51 and 289.5
- PECAM_1 (PECAM1/CD31; Patient 26, Cohort 8, PDAC, Day 3 post): 298.56 and 289.5
- PECAM_1 (PECAM1/CD31; Patient 26, Cohort 8, PDAC, Day 9 post): 215.26 and 221.83
- PECAM_1 (PECAM1/CD31; Patient 27, Cohort 8, CCC, Day 3 post): 350.64 and 331.88
- PECAM_1 (PECAM1/CD31; Patient 27, Cohort 8, CCC, Day 9 post): 286.17 and 303.44
- PECAM_1 (PECAM1/CD31; Patient 28, Cohort 8, CRLM, Day 3 post): 299.11 and 271.68
- PECAM_1 (PECAM1/CD31; Patient 28, Cohort 8, CRLM, Day 9 post): 262.91 and 211.07
- Median change in metabolic activity, EORTC ([1]; CCA, following chemotherapy): −32.39%
- Median change in metabolic activity, EORTC ([1]; CCA, under ITPP monotherapy): 17.97%
- Median change in metabolic activity, EORTC ([1]; CRLM, following chemotherapy): −14.64%
- Median change in metabolic activity, EORTC ([1]; CRLM, under ITPP monotherapy): 40.1%
- Median change in metabolic activity, EORTC ([1]; HCC, following chemotherapy): −8.47%
- Median change in metabolic activity, EORTC ([1]; HCC, under ITPP monotherapy): 15.54%
- Share of patients with PMR ([1]; ITPP monotherapy): 15%
- Share of patients with SMD ([1]; ITPP monotherapy): 41%
- Median change in metabolic activity, EORTC ([1]; PDAC, following chemotherapy): −52.19%
- Median change in metabolic activity, EORTC ([1]; PDAC, under ITPP monotherapy): −3.36%
- Metabolic progressions (PMD), EORTC ([1]; after ITPP monotherapy): 10
- Partial metabolic responses (PMR), EORTC ([1]; after ITPP monotherapy): four
- Stable metabolic diseases (SMD), EORTC ([1]; after ITPP monotherapy): 11
- Patients with PMD, EORTC [1, 3]: 4
- Patients with PMR, EORTC [1, 3]: 4
- Patients with SMD, EORTC [1, 3]: 7
- Share of patients with PMR ([1]; after subsequent chemotherapy): 27%
- Share of patients with SMD ([1]; after subsequent chemotherapy): 47%
- EORTC response after ITPP ([1]; individual patients, cohort 1 (1866 mg/m2)): PMD and PMR and SMD
- EORTC response after chemotherapy ([1]; individual patients, cohort 1, 1866 mg/m2): PMR
- EORTC response after ITPP ([1]; individual patients, cohort 2 (3732 mg/m2)): SMD and PMR
- EORTC response after chemotherapy ([1]; individual patients, cohort 2, 3732 mg/m2): SMD and PMR
- EORTC response after ITPP ([1]; individual patients, cohort 3 (5600 mg/m2)): SMD and PMR
- EORTC response after chemotherapy ([1]; individual patients, cohort 3, 5600 mg/m2): SMD and PMD
- EORTC response after ITPP ([1]; individual patients, cohort 4 (7000 mg/m2)): PMD and SMD
- EORTC response after chemotherapy ([1]; individual patients, cohort 4, 7000 mg/m2): SMD
- EORTC response after ITPP ([1]; individual patients, cohort 5 (8750 mg/m2)): SMD and PMD
- EORTC response after chemotherapy ([1]; individual patients, cohort 5, 8750 mg/m2): PMD
- EORTC response after ITPP ([1]; individual patients, cohort 6 (10500 mg/m2)): PMD and SMD
- EORTC response after chemotherapy ([1]; individual patients, cohort 6, 10500 mg/m2): PMD and PMR and SMD
- EORTC response after ITPP ([1]; individual patients, cohort 7 (12390 mg/m2)): PMD and PMR
- EORTC response after chemotherapy ([1]; individual patients, cohort 7, 12390 mg/m2): SMD
- EORTC response after ITPP ([1]; individual patients, cohort 8 (14500 mg/m2)): PMD and SMD
- EORTC response after chemotherapy ([1]; individual patients, cohort 8, 14500 mg/m2): SMD
- Lesion1_chemo_SUV [1, 4]: 13.27 and 7.35 and 9.2 and 4.3 and 17.8 and 12.2 and 6.7 and 7.2 and 13.5 and 10.7 and 12.4 and 5.5 and 7.7 and 6.77
- Lesion1_chemo_TLG [1, 4]: 4678.1 and 60.2 and 158.8 and 9.1 and 331.5 and 23.3 and 13.1 and 256.8 and 487.3 and 17.2 and 3.8 and 24.1
- Lesion1_post_SUV [1, 5]: 17.32 and 8.65 and 4.69 and 14.2 and 13.2 and 10.3 and 8.4 and 9.8 and 10.7 and 12.2 and 18.4 and 13.9 and 18.7 and 7.5 and 12 and 8.8 and 12.7 and 10.8 and 45.7 and 4.25 and 11.68 and 7.7 and 10.67 and 9.79
- Lesion1_post_TLG [1, 5]: 7101.9 and 86.3 and 302.7 and 877.7 and 139.3 and 181.7 and 75 and 382.8 and 112.3 and 878.1 and 21.6 and 249.1 and 3441.2 and 63.2 and 62.4 and 4.1 and 71.4 and 2012.6
- Lesion1_pre_SUV [1, 6]: 14.29 and 12.03 and 5.25 and 9.2 and 10.8 and 9.1 and 7.6 and 8 and 8.3 and 7 and 14.1 and 9.3 and 12.4 and 9 and 13.2 and 11 and 12.04 and 21.6 and 5.32 and 11.06 and 6.36 and 11.68 and 11.22
- Lesion1_pre_TLG [1, 6]: 4372.3 and 124.4 and 1117.7 and 865.6 and 104.9 and 699.3 and 37.5 and 197.8 and 43.3 and 531.1 and 1331.5 and 11.5 and 69 and 261.2 and 492.5 and 34.8 and 58.7 and 2.3 and 148.5 and 3074.9
- Lesion2_chemo_SUV [1, 7]: 4.43 and 13.5 and 11.3 and 7.8 and 11.2 and 11 and 7 and 9.4 and 9.6 and 7.5 and 10.3 and 10.5 and 3.4 and 4.42 and 3.74
- Lesion2_chemo_TLG [1, 7]: 4.9 and 33.2 and 133.7 and 36.1 and 149.3 and 14.3 and 27.9 and 32.3 and 3.9 and 12.6 and 26.7
- Lesion2_post_SUV [1, 8]: 4.64 and 3.03 and 11.4 and 7.9 and 6.6 and 12.3 and 14 and 13.6 and 9 and 9.6 and 8.6 and 8.1 and 8.4 and 10.3 and 40.7 and 6.42 and 6.24 and 10.36 and 3.73
- Lesion2_post_TLG [1, 8]: 7.8 and 11.6 and 331.6 and 39.8 and 377.1 and 65.2 and 12.4 and 11.8 and 24.4 and 19.9 and 14.3 and 147.3 and 3.1
- Lesion2_pre_SUV [1, 9]: 3.34 and 10.83 and 7.9 and 7.2 and 3.9 and 7.6 and 11.6 and 13 and 5 and 7.8 and 5.5 and 3 and 10.2 and 13.3 and 20.8 and 5.84 and 5.77 and 11.3 and 4.77
- Lesion2_pre_TLG [1, 9]: 3.9 and 7.1 and 175.5 and 11.2 and 263.8 and 27.2 and 31.1 and 3.3 and 23.7 and 55 and 21.4 and 24.9 and 86.2 and 13.2
- Lesion3_chemo_SUV [1, 10]: 10.68 and 18.07 and 6.5 and 2.3 and 9.2 and 3.6 and 3.1 and 10.9 and 2.7 and 2.5 and 0
- Lesion3_chemo_TLG [1, 10]: 308 and 244.4 and 13.2 and 1 and 42.3 and 3.4 and 0.3 and 0
- Lesion3_post_SUV [1, 11]: 13.38 and 8.25 and 7.8 and 2.7 and 13 and 9.9 and 13.6 and 3.9 and 32.3 and 10.6 and 2.97 and 3.4
- Lesion3_post_TLG [1, 11]: 436.7 and 47.6 and 16.7 and 1.2 and 79.1 and 13.5 and 26.8 and 22.4 and 1.1 and 3.2
- Lesion3_pre_SUV [1, 12]: 12.41 and 13.89 and 10.1 and 2.3 and 3.6 and 5.8 and 13.7 and 2.6 and 10.84 and 19.9 and 10.9 and 2.7 and 7.35
- Lesion3_pre_TLG [1, 12]: 261.7 and 28.6 and 21.7 and 1 and 13.5 and 3.4 and 72.1 and 179.3 and 22.6 and 0.1 and 3.9
- Lesion4_chemo_SUV [1, 13]: 2.5 and 3.2 and 4.7 and 3.72
- Lesion4_chemo_TLG [1, 13]: 1.3 and 2.7 and 0 and 46.4
- Lesion4_post_SUV [1, 14]: 3.5 and 16.1 and 6.1 and 1.6 and 14.37
- Lesion4_post_TLG [1, 14]: 1.3 and 42.9 and 0 and 161.9
- Lesion4_pre_SUV [1, 15]: 7.6 and 11.5 and 4.2 and 8.83 and 3.9 and 13.22
- Lesion4_pre_TLG [1, 15]: 17.4 and 33.9 and 16.4 and 1.1 and 84.7
- Lesion5_chemo_SUV [1, 16]: 2 and 9.1 and 1.4 and 0
- Lesion5_chemo_TLG [1, 16]: 3.4 and 0
- Lesion5_post_SUV [1, 17]: 6.8 and 10.7 and 1.35 and 6.92
- Lesion5_post_TLG [1, 17]: 18.9 and 0 and 11.9
- Lesion5_pre_SUV [1, 18]: 7.3 and 11.5 and 6.85 and 3.5 and 3.76
- Lesion5_pre_TLG [1, 18]: 7.3 and 4.3 and 0.6 and 2.7
- RespITPP_EORTC ([1]; individual patients, metabolic response after ITPP monotherapy): SMD and PMR and PMD
- RespChemo_EORTC ([1]; individual patients, metabolic response after subsequent chemotherapy following ITPP): SMD and PMD and PMR
- RespITPP_EORTC ([1]; metabolic response after ITPP, per individual patient, cohort c1, tumor c2): SMD and PMR and PMD
- RespChemo_EORTC ([1]; metabolic response after chemotherapy following ITPP, per individual patient, cohort c1, tumor c2): SMD and PMD and PMR
- Time of peak plasma levels (Cmax) after infusion start ([2]; human): 6 h
- ITPP baseline levels at infusion start (Cmin) [2]: below the detection threshold
